Data reported in ChEMBL document CHEMBL1201862, “PubChem BioAssay data set” (2004).
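Results reflect a 48-hour exposure of cells in 96-well plates to compound at five concentrations. The concentration for 50% growth inhibition is given as GI50.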 Calls of active or inactive are those of the source. No stated cut-off is given here; in the data, active = GI50 up to about 1.1 µM and inactive = higher.

Experiments:
Experiment in all cases: NCI anticancer screen, dose series, 48 h
OVCAR-5 = system: OVCAR-5
Malme-3M = system: Malme-3M
K562 = system: K562
A549 = system: A549
DMS-114 = system: DMS-114
NCI-H460 = system: NCI-H460
OVCAR-4 = system: OVCAR-4
SN12C = system: SN12C
SK-MEL-5 = system: SK-MEL-5
LOX IMVI = system: LOX IMVI
HCT-116 = system: HCT-116
M14 = system: M14
EKVX = system: EKVX
M19-MEL = system: M19-MEL
DMS-273 = system: DMS-273
HCC 2998 = system: HCC 2998
SNB-78 = system: SNB-78
NCI-H226 = system: NCI-H226
SNB-19 = system: SNB-19
NCI-H23 = system: NCI-H23
786-0 = system: 786-0
HOP-92 = system: HOP-92
OVCAR-3 = system: OVCAR-3
HT-29 = system: HT-29
NCI-H522 = system: NCI-H522
HL-60 = system: HL-60
XF498 = system: XF498
U-251 = system: U-251
SR = system: SR
DLD-1 = system: DLD-1
LXFL 529 = system: LXFL 529
HCT-15 = system: HCT-15
CAKI-1 = system: CAKI-1
MOLT-4 = system: MOLT-4
HOP-62 = system: HOP-62
RXF 631 = system: RXF 631
UACC-257 = system: UACC-257
TK-10 = system: TK-10
SK-MEL-2 = system: SK-MEL-2
RPMI-8226 = system: RPMI-8226
SF-268 = system: SF-268
OVCAR-8 = system: OVCAR-8
UACC-62 = system: UACC-62
A498 = system: A498
SF-539 = system: SF-539
SW-620 = system: SW-620
COLO 205 = system: COLO 205
SNB-75 = system: SNB-75
UO-31 = system: UO-31
RXF 393 = system: RXF 393
SK-MEL-28 = system: SK-MEL-28
SF-295 = system: SF-295
IGROV-1 = system: IGROV-1
CCRF-CEM = system: CCRF-CEM
KM-20L2 = system: KM-20L2
HOP-18 = system: HOP-18
ACHN = system: ACHN
SK-OV-3 = system: SK-OV-3
KM12 = system: KM12

N#CC(/C(=N\NC(N)=S)C(=O)NC1C2CC3CC(C2)CC1C3)c1ccc(Cl)cc1 (centres undefined)
GI50 (OVCAR-5): > 100 µM (inactive)
GI50 (Malme-3M): > 100 µM (inactive)
GI50 (K562): > 100 µM (inactive)
GI50 (A549): > 100 µM (inactive)
GI50 (DMS-114): > 100 µM (inactive)
GI50 (NCI-H460): > 100 µM (inactive)
GI50 (OVCAR-4): > 100 µM (inactive)
GI50 (SN12C): > 100 µM (inactive)
GI50 (SK-MEL-5): > 100 µM (inactive)
GI50 (LOX IMVI): > 100 µM (inactive)
GI50 (HCT-116): > 100 µM (inactive)
GI50 (M14): > 100 µM (inactive)
GI50 (EKVX): > 100 µM (inactive)
GI50 (M19-MEL): > 100 µM (inactive)
GI50 (DMS-273): > 100 µM (inactive)
GI50 (HCC 2998): > 100 µM (inactive)
GI50 (SNB-78): > 100 µM (inactive)
GI50 (NCI-H226): > 100 µM (inactive)
GI50 (SNB-19): > 100 µM (inactive)
GI50 (NCI-H23): > 100 µM (inactive)
GI50 (786-0): > 100 µM (inactive)
GI50 (HOP-92): > 100 µM (inactive)
GI50 (OVCAR-3): > 100 µM (inactive)
GI50 (HT-29): > 100 µM (inactive)
GI50 (NCI-H522): > 100 µM (inactive)
GI50 (HL-60): > 100 µM (inactive)
GI50 (XF498): > 100 µM (inactive)
GI50 (U-251): > 100 µM (inactive)
GI50 (SR): > 100 µM (inactive)
GI50 (DLD-1): > 100 µM (inactive)
GI50 (LXFL 529): > 100 µM (inactive)
GI50 (HCT-15): > 100 µM
GI50 (CAKI-1): > 100 µM (inactive)
GI50 (MOLT-4): > 100 µM (inactive)
GI50 (HOP-62): > 100 µM (inactive)
GI50 (RXF 631): > 100 µM (inactive)
GI50 (UACC-257): > 100 µM (inactive)
GI50 (TK-10): > 100 µM (inactive)
GI50 (SK-MEL-2): > 100 µM (inactive)
GI50 (RPMI-8226): > 100 µM (inactive)
GI50 (SF-268): > 100 µM (inactive)
GI50 (OVCAR-8): > 100 µM (inactive)
GI50 (UACC-62): > 100 µM (inactive)
GI50 (A498): > 100 µM (inactive)
GI50 (SF-539): > 100 µM (inactive)
GI50 (SW-620): > 100 µM (inactive)
GI50 (COLO 205): > 100 µM (inactive)
GI50 (SNB-75): > 100 µM (inactive)
GI50 (UO-31): > 100 µM (inactive)
GI50 (RXF 393): > 100 µM (inactive)
GI50 (SK-MEL-28): > 100 µM (inactive)
GI50 (SF-295): > 100 µM (inactive)
GI50 (IGROV-1): > 100 µM (inactive)
GI50 (CCRF-CEM): > 100 µM (inactive)
GI50 (KM-20L2): > 100 µM (inactive)
GI50 (HOP-18): > 100 µM (inactive)
GI50 (ACHN): > 100 µM (inactive)
GI50 (SK-OV-3): > 100 µM (inactive)
GI50 (KM12): > 100 µM (inactive)
